target: T1, human apelin receptor (APJ, APLNR) (Homo sapiens, UniProt P35414); experiment: cell-based cAMP assay (TR-FRET) in Chinese hamster ovary cells expressing the apelin receptor; conditions: EC50 = 50% of control (apelin-13, 1 nM) response; cAMP in CHO cells, 0.5 h incubation; read-out: Potency Category
T1 construct: host or cells: Chinese hamster ovary (CHO) cells, stably integrated receptor
T1 sequence (P35414 1-380): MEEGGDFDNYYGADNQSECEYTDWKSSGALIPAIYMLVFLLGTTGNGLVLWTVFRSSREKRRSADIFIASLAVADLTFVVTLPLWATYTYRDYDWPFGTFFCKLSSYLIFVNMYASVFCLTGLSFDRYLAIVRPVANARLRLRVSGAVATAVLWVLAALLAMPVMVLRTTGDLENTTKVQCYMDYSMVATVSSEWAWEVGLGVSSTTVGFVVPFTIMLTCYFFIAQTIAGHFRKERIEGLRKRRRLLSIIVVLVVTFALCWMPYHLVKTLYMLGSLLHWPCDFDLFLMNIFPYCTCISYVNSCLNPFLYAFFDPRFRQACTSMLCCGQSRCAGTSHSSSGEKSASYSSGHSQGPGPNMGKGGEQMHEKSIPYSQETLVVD
In short: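 CHO cells stably expressing human APJ were forskolin-stimulated, then exposed to compound (0.0-100 μM, ≤1% DMSO) for 0.5 h. Lysate cAMP read by competitive TR-FRET immunoassay; EC50 and efficacy expressed relative to 1 nM apelin-13, four-parameter fit over ≥10 concentrations.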

First: COc1cccc(OC)c1-c1c(C)nn2c(C(C)C)cc(C(=O)O)nc12 [Compound 42, 3-(2,6-dimethoxyphenyl)-2-methyl-7-(methylethyl)-8-hydropyrazolo[1,5-a]pyrimidine-5-carboxylic acid]
Second: COCc1cccc(C)c1-c1c(C)nn2c(C(C)C)cc(C(=O)O)nc12 [Compound 131, 3-[6-(methoxymethyl)-2-methylphenyl]-2-methyl-7-(methylethyl)-8-hydropyrazolo[1,5-a]pyrimidine-5-carboxylic acid]
The EC50 of the first is higher: over 500 nM for the first, under 100 nM for the second.

`Cc1cccc(C)c1-c1c(C)nn2c(-c3ccco3)cc(C(=O)O)nc12` [Compound 156, 3-(2,6-dimethylphenyl)-7-(2-furyl)-2-methyl-8-hydropyrazolo[1,5-a]pyrimidine-5-carboxylic acid] and `CCCc1cc(C(=O)O)nc2c(-c3c(C)cccc3C)c(C)nn12` [Compound 55, 3-(2,6-dimethylphenyl)-2-methyl-7-propyl-8-hydropyrazolo[1,5-a]pyrimidine-5-carboxylic acid] cannot be ordered by EC50: over 500 nM for the first, over 500 nM for the second.

`CCc1cccc(CC)c1-c1c(C)nn2c(C(C)C)cc(C(=O)O)nc12` [Compound 116] and `Cc1cccc(Cl)c1-c1c(C)nn2c(C(C)C)cc(C(=O)O)nc12` [Compound 93, 3-(6-chloro-2-methylphenyl)-2-methyl-7-(methylethyl)-8-hydropyrazolo[1,5-a]pyrimidine-5-carboxylic acid] fall in the same range of EC50: 200 to 500 nM for the first, 200 to 500 nM for the second.

`CCOC(=O)c1cc(C(C)C)n2nc(C)c(-c3cccc(OC)c3)c2n1` [Compound 18, ethyl 3-(3-methoxyphenyl)-2-methyl-7-(methylethyl)-8-hydropyrazolo[1,5-a]pyrimidine-5-carboxylate] and `CCOC(=O)c1cc(C(C)C)n2nc(C)c(-c3cccc(F)c3)c2n1` [Compound 25, ethyl 3-(3-fluorophenyl)-2-methyl-7-(methylethyl)-8-hydropyrazolo[1,5-a]pyrimidine-5-carboxylate] cannot be ordered by EC50: over 500 nM for the first, over 500 nM for the second.

`Cc1cccc(C)c1-c1c(C)nn2c(N3CCCC3)cc(C(=O)O)nc12` [Compound 123, 3-(2,6-dimethylphenyl)-2-methyl-7-pyrrolidinyl-8-hydropyrazolo[1,5-a]pyrimidine-5-carboxylic acid] and `CCCN(C)c1cc(C(=O)O)nc2c(-c3c(C)cccc3C)c(C)nn12` [Compound 153, 3-(2,6-dimethylphenyl)-2-methyl-7-(methylpropylamino)-8-hydropyrazolo[1,5-a]pyrimidine-5-carboxylic acid] cannot be ordered by EC50: over 500 nM for the first, over 500 nM for the second.

`Cc1nn2c(C(C)C)cc(C(=O)O)nc2c1-c1c(F)cccc1Cl` [Compound 113, 3-(2-chloro-6-fluorophenyl)-2-methyl-7-(methylethyl)-8-hydropyrazolo[1,5-a]pyrimidine-5-carboxylic acid] and `Cc1nn2c(C(C)C)cc(C(=O)O)nc2c1-c1c(F)cccc1C#N` [Compound 120, 3-(2-cyano-6-fluorophenyl)-2-methyl-7-(methylethyl)-8-hydropyrazolo[1,5-a]pyrimidine-5-carboxylic acid] cannot be ordered by EC50: over 500 nM for the first, over 500 nM for the second.

First: Cc1cccc(C)c1-c1c(C)nn2c(C(C)C)cc(C(=O)C(F)(F)F)nc12 [Compound 64, 1-[3-(2,6-dimethylphenyl)-2-methyl-7-(methylethyl)(8-hydropyrazolo[1,5-a]pyrimidin-5-yl)]-2,2,2-trifluoroethan-1-one]
Second: Cc1cccc(Br)c1-c1c(C)nn2c(C(C)C)cc(C(=O)O)nc12 [Compound 130, 3-(2-bromo-6-methylphenyl)-2-methyl-7-(methylethyl)-8-hydropyrazolo[1,5-a]pyrimidine-5-carboxylic acid]
The EC50 of the first is higher: over 500 nM for the first, 200 to 500 nM for the second. The second is the more potent here.

`CCOC(=O)c1cc(C(C)C)n2nc(-c3ccccc3)c(-c3c(C)cccc3C)c2n1` [Compound 78, ethyl 3-(2,6-dimethylphenyl)-7-(methylethyl)-2-phenyl-8-hydropyrazolo[1,5-a]pyrimidine-5-carboxylate] gave an EC50 of over 500 nM.

— US12006321B2, “Substituted pyrazolo[1,5-a]pyrimidines as apelin receptor agonists” (Sanford Burnham Prebys Medical Discovery Institute, priority 2017, dated 2024)
